Laboratory results from publication PMC6296175, “Oxidative stress‐induced structural changes in the microtubule‐associated flavoenzyme Irc15p from Saccharomyces cerevisiae” (Protein Science : A Publication of the Protein Society, 2018).
Values belong to the molecule of their own block, whether it stands above or below them.

Assays:
Irc15p [1] = molecular target: T1, Irc15p (Saccharomyces cerevisiae, UniProt Q02733); experiment: stopped-flow reductive half-reaction, flavin absorption at […] nm, hyperbolic fit of rate; assay type: biochemical; conditions: anoxic; 50 mM HEPES, 50 mM NaCl, 1 mM DTT, pH 7.0; 4 °C; pre-steady-state; read-out: dissociation constant
T1 construct: gene IRC15; E. coli Rosetta (DE3); ~55 kDa subunit, homodimer ~113-115 kDa, one FAD per protomer
T1 sequence (Q02733 1-499): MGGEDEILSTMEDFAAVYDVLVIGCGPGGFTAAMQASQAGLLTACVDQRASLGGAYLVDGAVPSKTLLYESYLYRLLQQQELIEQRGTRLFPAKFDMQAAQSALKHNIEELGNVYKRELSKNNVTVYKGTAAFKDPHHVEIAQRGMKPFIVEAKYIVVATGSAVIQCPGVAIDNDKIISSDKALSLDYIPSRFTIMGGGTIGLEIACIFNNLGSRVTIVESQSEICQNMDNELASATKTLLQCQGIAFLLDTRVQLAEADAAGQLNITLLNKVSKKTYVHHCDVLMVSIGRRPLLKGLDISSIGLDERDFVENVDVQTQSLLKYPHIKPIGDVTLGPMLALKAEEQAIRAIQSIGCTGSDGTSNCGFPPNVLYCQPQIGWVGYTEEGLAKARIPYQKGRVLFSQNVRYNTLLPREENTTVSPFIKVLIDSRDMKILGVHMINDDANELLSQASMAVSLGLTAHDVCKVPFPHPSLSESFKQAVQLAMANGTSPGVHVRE

Irc15p [2] = molecular target: T1, Irc15p; experiment: thermal shift assay (SYPRO Orange); assay type: binding; conditions: 50 mM HEPES, 50 mM NaCl, 1 mM DTT, pH 7.0, absolute Tm, compare ligand-free control in the 4th table, row 3
Source text: thermal shift assay (SYPRO Orange) on Irc15p

Irc15p [3] = molecular target: T1, Irc15p; experiment: HPLC of flavin released from denatured protein; UV-Vis absorption; assay type: binding; conditions: co-purified; lysis buffer supplemented with 10 μM FAD; one FAD per protomer
[4] = molecular target: the molecule itself; experiment: SEC; analytical size exclusion chromatography, Superdex 200 10/300 GL, buffer A (50 mM HEPES, 150 mM NaCl, 1 mM DTT, pH 7.0), calibrated with molecular mass standards; elution monitored at 280 and 450 nm

Molecule: NC(=O)C1=CN([C@@H]2O[C@H](COP(=O)(O)OP(=O)(O)OC[C@H]3O[C@@H](n4cnc5c(N)ncnc54)[C@H](O)[C@@H]3O)[C@@H](O)[C@H]2O)C=CC1 [NADH]
Kd (Irc15p [1]): 100 ± 5 µM | T m [°C] (Irc15p [2]; 50 mM NADH, ligand reduces the FAD): 47 °C

Molecule: Cc1cc2nc3c(=O)[nH]c(=O)nc-3n(C[C@H](O)[C@H](O)[C@H](O)COP(=O)(O)OP(=O)(O)OC[C@H]3O[C@@H](n4cnc5c(N)ncnc54)[C@H](O)[C@@H]3O)c2cc1C [FAD]
HPLC of flavin released from denatured protein; UV-Vis absorption (Irc15p [3]): closely corresponding to the retention time of authentic FAD

B1: Irc15p (increased recombination centers 15) (enzyme, S. cerevisiae, UniProt Q02733 1-499, looked up)
chain: MGGEDEILSTMEDFAAVYDVLVIGCGPGGFTAAMQASQAGLLTACVDQRASLGGAYLVDGAVPSKTLLYESYLYRLLQQQELIEQRGTRLFPAKFDMQAAQSALKHNIEELGNVYKRELSKNNVTVYKGTAAFKDPHHVEIAQRGMKPFIVEAKYIVVATGSAVIQCPGVAIDNDKIISSDKALSLDYIPSRFTIMGGGTIGLEIACIFNNLGSRVTIVESQSEICQNMDNELASATKTLLQCQGIAFLLDTRVQLAEADAAGQLNITLLNKVSKKTYVHHCDVLMVSIGRRPLLKGLDISSIGLDERDFVENVDVQTQSLLKYPHIKPIGDVTLGPMLALKAEEQAIRAIQSIGCTGSDGTSNCGFPPNVLYCQPQIGWVGYTEEGLAKARIPYQKGRVLFSQNVRYNTLLPREENTTVSPFIKVLIDSRDMKILGVHMINDDANELLSQASMAVSLGLTAHDVCKVPFPHPSLSESFKQAVQLAMANGTSPGVHVRE
notes: The forward primer carries the start ATG; Homodimer with one FAD per protomer; this was read from the printed primers; source: E. coli Rosetta (DE3), pET21d(+)IRC15, purified (Ni-NTA HisTrap HP; for SAXS also size exclusion chromatography)
stoichiometry N [4]: 2

Further lines, results first:

T m [°C] (Irc15p [2]; 50 mM NADPH, ligand reduces the FAD): 45 °C
Molecule: NC(=O)C1=CN([C@@H]2O[C@H](COP(=O)(O)OP(=O)(O)OC[C@H]3O[C@@H](n4cnc5c(N)ncnc54)[C@H](OP(=O)(O)O)[C@@H]3O)[C@@H](O)[C@H]2O)C=CC1 [NADPH]

T m [°C] (Irc15p [2]; 50 mM NAD+): 64 °C
Molecule: NC(=O)c1ccc[n+]([C@@H]2O[C@H](COP(=O)(O)OP(=O)(O)OC[C@H]3O[C@@H](n4cnc5c(N)ncnc54)[C@H](O)[C@@H]3O)[C@@H](O)[C@H]2O)c1 [NAD^+]
